# Experimental data as given in US20220142955A1, “METHODS OF TREATING ORGANIC ACIDEMIAS” (HemoShear Therapeutics, Inc., priority 2019, published 2022).
# Where “and” joins values, the source holds several entries; their conditions need not be identical. Equal entries are not always repeated. Where two headings read alike, the source gives them in different places.
# Key:
# clinical = experiment: clinical; set-up: species or system human; conditions: in vivo; for AUC / Cmax: human
# Experimental: In some embodiments, the method entails administering 2,2-dimethylbutyric acid, or a CoA ester or carnitine ester thereof, or a pharmaceutically acceptable salt, ester, or solvate thereof, at a concentration ranging from about, including about […] to 50 mg/kg.
# [1] = system: primary hepatocytes of propionic acidemia patients; experiment: Propionyl-CoA from various sources in PA primary hepatocytes (Examples 2, 3); format: cell-based, human; conditions: Homo sapiens, Hepatocyte, read-out: concentration of propionyl-CoA EC50
# Experimental: Primary hepatocytes isolated from livers of propionic acidemia patients are treated with increasing doses of compound 1 (0, 1, 3, 10, 30, 100, 300, 1000 μM) for 30 min. After 30 min the cells are challenged with the different sources of P-CoA, which may include ^13C-ketoisovaleric acid (KIVA) (1 mM), […] (ILE) (3 mM), ^13C-threonine (THR) (5 mM), ^13C-methionine (MET) (5 mM), ^13C-heptanoate (100 μM), or ^13C-propionate (5 mM) for 60 minutes. At the end of the challenge period, media is removed and the cells are lysed with 70% MeCN and 0.1% TFA containing 100 μM of ethymalonyl-CoA as an internal standard and harvested. Cell lysates are processed for HTMS/MS analysis.
# Primary hepatocytes isolated from livers of propionic acidemia patients are treated with increasing doses of compound 5 (0, 0.1, 0.3, 1, 3, 10, 30, 100 μM) for 30 minutes. After 30 minutes the cells are challenged with the different sources of P-CoA, which may include ^13C-KIVA (1 mM), ^13C-isoleucine (3 mM), ^13C-threonine (5 mM), ^13C-methionine (5 mM), ^13C-heptanoate (100 μM), or ^13C-propionate (5 mM) for 60 minutes. At the end of the challenge period, media is removed and the cells are lysed with 70% MeCN and 0.1% TFA containing 100 μM of ethymalonyl-CoA as an internal standard and harvested. Cell lysates are processed for HTMS/MS analysis.
# PA primary hepatocytes = experiment: HemoShear Technology, PA primary hepatocytes (Examples 10, 11); format: cell-based, human
# Description: For this experiment, we deployed the HemoShear REVEAL-Tx™ technology, which is based on the cone-and-plate configuration or viscometer combined with a porous polycarbonate membrane that mimics a filtering layer of sinusoidal endothelial cells (see: Dash A, Deering TG, Marukian S, et al. Physiological Hemodynamics and Transport Restore Insulin and Glucagon Responses in a Normal Glucose Milieu in Hepatocytes In Vitro. 73rd Scientific Sessions of the American Diabetes Association, 2013 (Chicago), and U.S. Pat. Nos. 7,811,782 and 9,500,642, and 9,617,521, each of which is incorporated by reference herein in its entirety).
# Hepatocytes from propionic academia patients are plated in a collagen gel sandwich on one side of the membrane replicating the polarized orientation found in vivo within the hepatic sinusoids. On the other side, medium is continuously perfused and surface shear rates are applied across a range of physiological values derived from sinusoidal flow rates in vivo while also controlling transport in the system with in- and out-flow tubing to each compartment. Effectively, this creates a flow-based culture system where hepatocytes are shielded from direct effects of flow, as they would be in vivo, but perfusion, nutrient gradients, and interstitial fluid movement are maintained.
# Biomarker levels are normalized to cell counts and cell volume to account for differences in the number of cells plated for each donor. […] This is most likely due to the presence of ^12C-succinyl-CoA in the sample, which has the same mass. In experiments described below, M-CoA is labeled with ^13C to determine a more accurate percent reduction. Compound 5 reduced the C3 concentration and the C3/C2 ratio with an EC50 similar to that for the reduction in P-CoA (FIGS. 7C, D).
# [2] = system: primary hepatocytes of propionic acidemia patients; experiment: Reduction of 13C-propionyl-CoA and accumulation of compound-CoA ester after 13C-isoleucine challenge (Example 1); format: cell-based; conditions: Homo sapiens, Hepatocyte, 13C-labeled isoleucine, compound 0 μM to 1,000 μM
# Experimental: Primary hepatocytes are isolated from explanted livers of propionic acidemia patients and are cultured on day 1 using standard protocols (see: Chapman et al. “Recapitulation of metabolic defects in a model of propionic acidemia using patient-derived primary hepatocytes” Mol. Genet. Metab. 2016, 117(3), 355-362). Approximately 2×10^5 hepatocytes are plated into each well of a collagen-coated 48-well tissue culture plate and pre-conditioned in a custom Modified Corning culture media for Hepatocells (Corning) without low levels of branched chain amino acids for 72 hours. On day 4, hepatocytes are treated with increasing doses of compound (0, 1, 3, 10, 30, 100, 300, 1000 μM) for 30 min. After 30 min the cells are challenged with ^13C-isoleucine (3 mM). At the end of the challenge period, cells are lysed in 100 μL of […] acetonitrile (MeCN) and 0.1% trifluoroacetic acid (TFA) containing 100 μM of ethymalonyl-CoA as an internal standard. Cells are removed from the well by scraping into the lysis buffer. The collected cellular samples are then dispensed into a microfuge tube. The plate wells are washed again with lysis buffer to ensure the remaining cells are dislocated from the well. All remaining collected cells are then moved into the centrifuge tube. The cellular samples are flash frozen in liquid nitrogen and stored at −80° C. To begin processing, the frozen cellular lysates are thawed on ice and vortexed. The samples are centrifuged at 20,000 g for 10 min at 4° C. and the total volume of supernatant is transferred to a no-bind 96-well plate on ice. The samples are dried under vacuum for about 2 hours and then resuspended in 150 μL of water in each well. Total volumes of samples are filtered through a prepared Durapore filter plate into a no-bind 96-well plate. The filtered samples are stored at −80° C. for HTMS/MS analysis.
# [3] = PA pHeps, HemoShear, average ± SD
structure (smiles),measurement,setting,value
"CCC(C)(C)C(=O)O [Compound 5, 2,2-dimethybutanoic acid]",AUC,clinical; 30 mg/kg,2180 µg·h/mL
same,Cmax,clinical; 30 mg/kg,156 µg/mL
same,AUC,clinical; 40 mg/kg,2620 µg·h/mL
same,Cmax,clinical; 40 mg/kg,203 µg/mL
same,AUC,clinical; 50 mg/kg,3200 µg·h/mL
same,Cmax,clinical; 50 mg/kg,256 µg/mL
same,Blood plasma concentrations following administration (dose dependence),clinical,dose proportional
same,EC50,[1]; 1 mM 13C-KIVA,0.89 µM
same,EC50,[1]; 3 mM 13C-ILE,0.42 µM
same,EC50,[1]; 5 mM 13C-THR,1.24 µM
same,EC50,[1]; 5 mM 13C-propionate,15.3 µM
same,EC90,"PA primary hepatocytes; Homo sapiens, Hepatocyte, HemoShear, PA and MMA pHeps together, read-out: average EC90 value across all biomarkers",17.1 ± 13.4 µM
same,EC50,"PA primary hepatocytes; Homo sapiens, Hepatocyte, PA donor 1, representative data (FIG. 7A), read-out: P-CoA reduction EC50",1.84 µM
same,EC50,"PA primary hepatocytes; Homo sapiens, Hepatocyte, PA donor 1, representative data (FIG. 7E), read-out: MCA reduction EC50",1.96 µM
same,EC50,"PA primary hepatocytes; Homo sapiens, Hepatocyte, PA pHeps, HemoShear, average ± SD, read-out: 2-Methylcitric acid (2MC) EC50",1.1 ± 0.5 µM
same,EC90,"PA primary hepatocytes; Homo sapiens, Hepatocyte, PA pHeps, HemoShear, average ± SD, read-out: 2-Methylcitric acid (2MC) EC90",7.9 ± 3.6 µM
same,EC50,"PA primary hepatocytes; Homo sapiens, Hepatocyte, PA pHeps, HemoShear, average ± SD, read-out: 12C-Acetyl-Camitine (C2) EC50",4.8 ± 0.2 µM
same,EC90,"PA primary hepatocytes; Homo sapiens, Hepatocyte, PA pHeps, HemoShear, average ± SD, read-out: 12C-Acetyl-Camitine (C2) EC90",20.7 ± 13.1 µM
same,EC50,"PA primary hepatocytes; Homo sapiens, Hepatocyte, PA pHeps, HemoShear, average ± SD, read-out: 12C-Propionyl-Carnitine (C3) EC50",2.6 ± 1.9 µM
same,EC90,"PA primary hepatocytes; Homo sapiens, Hepatocyte, PA pHeps, HemoShear, average ± SD, read-out: 12C-Propionyl-Carnitine (C3) EC90",30.8 ± 26.4 µM
same,EC50,"PA primary hepatocytes; Homo sapiens, Hepatocyte, PA pHeps, HemoShear, average ± SD, read-out: 12C-Propionyl-CoA (P-CoA) EC50",1.9 ± 1 µM
same,EC90,"PA primary hepatocytes; Homo sapiens, Hepatocyte, PA pHeps, HemoShear, average ± SD, read-out: 12C-Propionyl-CoA (P-CoA) EC90",18.4 ± 11.3 µM
same,EC50,"PA primary hepatocytes; Homo sapiens, Hepatocyte, PA pHeps, HemoShear, read-out: 12C-Acetyl-CoA EC50",2.3 ± 1.9 µM
same,EC90,"PA primary hepatocytes; Homo sapiens, Hepatocyte, PA pHeps, HemoShear, read-out: 12C-Acetyl-CoA EC90",14.4 ± 13.6 µM
same,EC50,"PA primary hepatocytes; Homo sapiens, Hepatocyte, PA pHeps, HemoShear, read-out: CoASH EC50",11.6 ± 1.2 µM
same,EC90,"PA primary hepatocytes; Homo sapiens, Hepatocyte, PA pHeps, HemoShear, read-out: CoASH EC90",29.8 ± 24.3 µM
same,EC50,"PA primary hepatocytes; Homo sapiens, Hepatocyte, PA pHeps, HemoShear, read-out: Compound 5-CoA (formation) EC50",3 ± 1.5 µM
same,EC90,"PA primary hepatocytes; Homo sapiens, Hepatocyte, PA pHeps, HemoShear, read-out: Compound 5-CoA (formation) EC90",47.1 ± 39.7 µM
same,12C-Acetyl-CoA Percent change at 30 μM,"PA primary hepatocytes; PA pHeps, HemoShear",54 ± 80.6%
same,CoASH Percent change at 30 μM,"PA primary hepatocytes; PA pHeps, HemoShear",−31.3 ± 24.2%
same,average reduction in the C3/C2 ratio,"PA primary hepatocytes; PA pHeps, HemoShear, at 30 μM",−2.1±1.2 log 2 fold change
same,2-Methylcitric acid (2MC) % change at 30 μM,PA primary hepatocytes; [3],−78.6±12.9%
same,12C-Acetyl-Camitine (C2) % change at 30 μM,PA primary hepatocytes; [3],54 ± 80.6%
same,12C-Propionyl-Carnitine (C3) % change at 30 μM,PA primary hepatocytes; [3],−68.9±14.6% and −69.4 ± 16.2%
same,12C-Propionyl-CoA (P-CoA) % change at 30 μM,PA primary hepatocytes; [3],−78.8±10.9%
same,EC90,"PA primary hepatocytes; PA pHeps, HemoShear, average ± SD, read-out: 12C-Propionyl-Carnitine (C3) EC90",32.1 ± 29.3 µM
same,EC50,[2]; read-out: concentration of 12C-Compound-CoA ester EC50,0.95 µM
same,EC50,[2]; read-out: concentration of 13C-propionyl-CoA EC50,0.43 µM
